Experimental findings from ChEMBL document CHEMBL1157885, “The discovery and structure-activity relationships of 2-(piperidin-3-yl)-1H-benzimidazoles as selective, CNS penetrating H1-antihistamines for insomnia” (Bioorg Med Chem Lett, 2010) are described below.

The target of one data set is Cytochrome P450 3A4 (Homo sapiens, UniProt P08684). Nature of the data set: (§1) Inhibition of CYP3A4. It is filed as ADME.
In data set [1] the target is T1, Voltage-gated inwardly rectifying potassium channel KCNH2 (Homo sapiens, UniProt Q12809). Put plainly: Displacement of [3H]dofetolide from human ERG channel expressed in HEK293 cells by liquid scintillation counting. It counts as cell-based. For orientation: In a radioligand displacement assay an active substance lowers the binding of a labelled ligand.
The next data set concerns the target hERG (KCNH2) (Homo sapiens, UniProt Q12809). Put plainly: Inhibition of human ERG channel at 10 uM by patch clamp assay.
Data set [2] can be described thus: Solubility in 0.15 M KCl buffer at pH 7.4 by potentiometric method. It counts as physicochemical.
In data set [3] the target is T2, Muscarinic acetylcholine receptor M1 (Homo sapiens, UniProt P11229).
T2 sequence (P11229 whole entry): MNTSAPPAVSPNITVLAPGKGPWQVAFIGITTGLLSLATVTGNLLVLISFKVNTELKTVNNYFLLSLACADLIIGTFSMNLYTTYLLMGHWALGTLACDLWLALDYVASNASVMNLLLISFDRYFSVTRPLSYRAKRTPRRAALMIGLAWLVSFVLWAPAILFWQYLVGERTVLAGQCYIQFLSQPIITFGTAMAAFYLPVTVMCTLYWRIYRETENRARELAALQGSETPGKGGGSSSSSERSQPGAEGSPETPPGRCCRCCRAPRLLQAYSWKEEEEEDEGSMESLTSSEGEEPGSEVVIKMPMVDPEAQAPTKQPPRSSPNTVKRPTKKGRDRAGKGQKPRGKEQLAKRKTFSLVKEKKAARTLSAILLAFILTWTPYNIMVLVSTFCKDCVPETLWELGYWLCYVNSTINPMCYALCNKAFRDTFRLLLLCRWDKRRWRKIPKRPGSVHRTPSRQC
Nature of the data set: Displacement of [3H]N-methyl Scopolamine from human muscarinic M1 receptor expressed in CHO Flp-In cells by liquid scintillation counting. It is filed as cell-based.

For a further data set, the target named is CYP3A4 (Homo sapiens, UniProt P08684). Described as §1. It is filed as ADME.
Data set [4] addresses T1, Voltage-gated inwardly rectifying potassium channel KCNH2. Nature of the data set: Inhibition of human ERG channel by patch clamp assay. (In general: The patch-clamp technique gives a direct electrical read-out from membranes.)
The target is the same in data set [5]. Put plainly: Inhibition of human ERG channel by electrophysiology assay.
A further data set concerns the target Histamine H1 receptor (Homo sapiens, UniProt P35367). Put plainly: Displacement of [3H]pyrilamine from human histamine H1 receptor expressed in CHO Flp-In cells by liquid scintillation counting. It is filed as cell-based.
A further data set has as its system Liver microsomes. Put plainly: Metabolic stability in human liver microsomes. It is filed as ADME, Microsome. On the technique in general: Microsomes from liver hold many membrane-bound enzymes, among them those of drug oxidation.
A further data set concerns the target Cytochrome P450 2D6 (Homo sapiens, UniProt P10635). Put plainly: Inhibition of CYP2D6. It is filed as ADME.

T1 sequence (Q12809 whole entry): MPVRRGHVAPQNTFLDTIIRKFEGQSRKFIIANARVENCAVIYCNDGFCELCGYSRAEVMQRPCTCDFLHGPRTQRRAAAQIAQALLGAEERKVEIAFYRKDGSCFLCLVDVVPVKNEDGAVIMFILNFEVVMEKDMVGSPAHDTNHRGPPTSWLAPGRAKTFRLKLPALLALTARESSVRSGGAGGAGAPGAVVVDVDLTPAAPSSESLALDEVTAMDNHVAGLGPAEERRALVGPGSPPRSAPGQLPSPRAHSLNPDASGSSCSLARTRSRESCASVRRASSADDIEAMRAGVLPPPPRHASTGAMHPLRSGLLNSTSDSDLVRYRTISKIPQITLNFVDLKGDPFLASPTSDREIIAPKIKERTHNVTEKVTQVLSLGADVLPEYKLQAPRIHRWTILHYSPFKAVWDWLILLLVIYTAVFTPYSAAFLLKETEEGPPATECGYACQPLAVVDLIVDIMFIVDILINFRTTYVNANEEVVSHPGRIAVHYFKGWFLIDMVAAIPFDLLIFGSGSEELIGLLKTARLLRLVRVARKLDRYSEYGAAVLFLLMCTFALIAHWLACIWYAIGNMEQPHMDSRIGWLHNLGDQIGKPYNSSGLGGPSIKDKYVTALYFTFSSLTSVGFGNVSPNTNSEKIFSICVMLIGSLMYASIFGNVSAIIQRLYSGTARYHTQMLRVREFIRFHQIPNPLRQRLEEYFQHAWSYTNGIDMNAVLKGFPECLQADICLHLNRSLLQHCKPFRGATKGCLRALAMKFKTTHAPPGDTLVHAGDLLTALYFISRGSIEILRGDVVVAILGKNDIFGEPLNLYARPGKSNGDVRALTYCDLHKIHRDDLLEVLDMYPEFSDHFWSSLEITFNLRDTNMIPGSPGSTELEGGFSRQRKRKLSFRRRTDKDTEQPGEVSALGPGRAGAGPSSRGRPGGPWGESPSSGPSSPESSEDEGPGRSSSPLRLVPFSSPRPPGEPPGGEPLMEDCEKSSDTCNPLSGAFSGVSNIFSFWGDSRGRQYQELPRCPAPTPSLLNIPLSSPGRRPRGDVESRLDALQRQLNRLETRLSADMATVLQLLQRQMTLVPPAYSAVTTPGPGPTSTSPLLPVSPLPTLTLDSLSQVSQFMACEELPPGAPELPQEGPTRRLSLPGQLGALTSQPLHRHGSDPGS
Sequence of Cytochrome P450 3A4 (P08684 whole entry): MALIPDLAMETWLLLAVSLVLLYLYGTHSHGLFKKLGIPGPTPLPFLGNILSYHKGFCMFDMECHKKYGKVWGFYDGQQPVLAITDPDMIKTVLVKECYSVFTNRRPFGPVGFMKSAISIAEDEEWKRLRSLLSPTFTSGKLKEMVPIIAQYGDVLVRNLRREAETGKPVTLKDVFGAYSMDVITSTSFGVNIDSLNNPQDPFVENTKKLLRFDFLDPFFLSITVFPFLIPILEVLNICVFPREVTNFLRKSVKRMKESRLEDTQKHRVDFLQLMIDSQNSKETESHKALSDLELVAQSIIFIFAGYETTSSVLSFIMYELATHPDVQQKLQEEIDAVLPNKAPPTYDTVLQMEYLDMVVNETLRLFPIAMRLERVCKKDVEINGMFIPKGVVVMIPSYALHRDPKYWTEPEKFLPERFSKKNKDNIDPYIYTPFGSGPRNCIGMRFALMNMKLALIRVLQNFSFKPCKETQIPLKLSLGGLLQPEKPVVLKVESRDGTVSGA
Sequence of Cytochrome P450 2D6 (P10635 whole entry): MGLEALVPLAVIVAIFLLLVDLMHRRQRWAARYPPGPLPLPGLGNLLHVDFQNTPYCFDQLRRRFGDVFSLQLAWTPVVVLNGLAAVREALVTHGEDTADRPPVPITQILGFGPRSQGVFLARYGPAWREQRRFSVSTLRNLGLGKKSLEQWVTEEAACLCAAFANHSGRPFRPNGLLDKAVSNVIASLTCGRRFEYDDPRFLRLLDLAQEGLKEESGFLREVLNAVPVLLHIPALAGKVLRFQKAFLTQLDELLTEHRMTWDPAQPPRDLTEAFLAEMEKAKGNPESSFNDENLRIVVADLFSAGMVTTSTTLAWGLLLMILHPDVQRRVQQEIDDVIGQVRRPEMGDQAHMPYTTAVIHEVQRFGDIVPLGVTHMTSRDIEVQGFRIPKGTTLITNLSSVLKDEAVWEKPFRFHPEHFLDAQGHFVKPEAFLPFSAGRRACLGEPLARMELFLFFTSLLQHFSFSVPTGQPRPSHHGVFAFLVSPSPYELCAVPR
Sequence of Histamine H1 receptor (P35367 whole entry): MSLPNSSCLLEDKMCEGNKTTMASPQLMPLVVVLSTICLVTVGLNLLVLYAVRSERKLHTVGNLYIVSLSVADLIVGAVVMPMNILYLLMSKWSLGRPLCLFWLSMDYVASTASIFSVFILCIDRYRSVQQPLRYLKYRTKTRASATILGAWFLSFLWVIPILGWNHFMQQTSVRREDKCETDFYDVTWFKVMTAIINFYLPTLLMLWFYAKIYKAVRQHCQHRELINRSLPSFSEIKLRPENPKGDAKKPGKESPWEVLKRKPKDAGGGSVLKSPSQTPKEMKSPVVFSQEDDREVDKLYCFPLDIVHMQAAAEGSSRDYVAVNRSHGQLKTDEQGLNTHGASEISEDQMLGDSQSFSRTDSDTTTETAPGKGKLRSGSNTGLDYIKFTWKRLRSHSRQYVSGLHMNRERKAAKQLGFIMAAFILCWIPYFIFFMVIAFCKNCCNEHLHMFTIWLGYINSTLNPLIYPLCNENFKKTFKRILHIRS
Sequence of hERG (KCNH2) (Q12809 whole entry): as the sequence (Q12809 whole entry) above
Sequence of CYP3A4 (P08684 whole entry): as the sequence (P08684 whole entry) above

At Cytochrome P450 3A4, `CCOCCn1c(C2CCCN(C)C2)nc2ccccc21` (configuration not stated) displayed an IC50 of over 5 µM.

In data set [1], `CC(C)N1CCCC(c2nc3ccccc3n2Cc2ccc(F)cc2)C1` (configuration not stated) registered a Ki of 1.37 µM. This compound displayed an IC50 against Cytochrome P450 3A4 of over 5 µM.

As for `CCOCCn1c(C2CCCN(C3CCOCC3)C2)nc2ccccc21` (configuration not stated), the Ki in data set [1] was over 3 µM. At Cytochrome P450 3A4, this compound displayed a half-inhibitory concentration (IC50) of over 5 µM.

The compound `Fc1ccc(Cn2c(C3CCCN(C4CCCCC4)C3)nc3ccccc32)cc1` (configuration not stated) displayed an inhibition constant Ki in data set [1] of 0.926 µM. The compound also yielded an IC50 against Cytochrome P450 3A4 of over 5 µM.

As to `CN1CCC[C@@H](c2nc3ccccc3n2Cc2ccccn2)C1`, the affinity in [1] corresponds to a Ki of 10.3 µM. For the same compound, testing at 10 µM against hERG (KCNH2) gave an inhibition of 39%. For the same compound, the “inhibition (INH)” value at Cytochrome P450 3A4 is “Not Active”.

Consider `CCOCCn1c([C@H]2CCCN(C)C2)nc2ccccc21`, for which, at Cytochrome P450 3A4, the “inhibition (INH)” value is given as “Not Active”.

In data set [1], `Cc1csc(Cn2c(C3CCCN(C)C3)nc3ccccc32)n1` (configuration not stated) registered a Ki of over 10 µM. Also, on Cytochrome P450 3A4, the IC50 is over 5 µM.

Take `COc1ccc(Cn2c(C3CCCN(C4CCCCC4)C3)nc3ccccc32)cc1` (configuration not stated): in data set [1], the Ki was 1.84 µM.

Turning to `COc1ccc(Cn2c(C3CCCN(C(C)C)C3)nc3ccccc32)cc1` (configuration not stated), the inhibition constant Ki in data set [1] was 2.65 µM. Further, at Cytochrome P450 3A4, the IC50 is over 5 µM.

Consider `Cc1cnn(C2CCN(c3nc4ccccc4n3Cc3ccc(F)cc3)CC2)c1`, for which, in data set [2], the solubility was under 10 µg/mL.

`CN(CC1CCOCC1)C1CCN(c2nc3ccccc3n2Cc2ccc(F)cc2)CC1` showed a Ki in [3] of 4.8 µM. At CYP3A4, this compound showed an IC50 of over 5 µM.

For the compound `CN1CCCC(c2nc3ccccc3n2Cc2ccccn2)C1` (configuration not stated), the Ki in data set [1] is over 10 µM. Further, the 50% inhibitory concentration (IC50) against Cytochrome P450 3A4 is over 5 µM.

For `Cc1csc(Cn2c(C3CCCN(C4CCCCC4)C3)nc3ccccc32)n1` (configuration not stated), in data set [1], the Ki was 1.18 µM. Moreover, the IC50 at Cytochrome P450 3A4 was over 5 µM.

For `CN1CCCC(c2nc3ccccc3n2CCOc2ccccc2)C1` (configuration not stated), the IC50 against Cytochrome P450 3A4 was over 5 µM.

Take `COc1ccc(Cn2c(C3CCCN(C4CCOCC4)C3)nc3ccccc32)cc1` (configuration not stated): the Ki in data set [1] was over 10 µM. This compound gave a half-maximal inhibitory concentration (IC50) at Cytochrome P450 3A4 of over 5 µM.

`CN1CCC[C@H](c2nc3ccccc3n2Cc2ccccn2)C1` gave a Ki in data set [1] of over 10 µM. Also, the “inhibition (INH)” value at Cytochrome P450 3A4 was “Not Active”.

`CCOCCn1c([C@@H]2CCCN(C3CCOCC3)C2)nc2ccccc21`: in data set [4], 2.1 µM corresponded to half-maximal inhibition (IC50). The same compound gave a Ki in data set [1] of over 3 µM. Further, the “inhibition (INH)” value against Cytochrome P450 3A4 is on record as “Not Active”.

In turn, `CN1CCCC(c2nc3ccccc3n2CC2CCCO2)C1` (configuration not stated) returned a Ki in data set [1] of 0.638 µM. The IC50 on Cytochrome P450 3A4 was over 5 µM.

Regarding `CCOCCn1c([C@@H]2CCCN(C)C2)nc2ccccc21`, the “inhibition (INH)” value at Cytochrome P450 3A4 is “Not Active”.

With `COc1ccc(Cn2c(N3CC[C@@H](N(C)C)C3)nc3ccccc32)cc1`, the IC50 is 0.233 µM in data set [5], over 10 µM on Cytochrome P450 2D6 and over 5 µM against Cytochrome P450 3A4. Further, the Ki at Histamine H1 receptor was 0.0084 µM; in data set [3], 2.5 µM. Moreover, in the data set with Liver microsomes, the Stability result is reported as “Stable”.

With `CCOCCn1c(C2CCCN(C3CCCCC3)C2)nc2ccccc21` (configuration not stated), the Ki in data set [1] is over 10 µM. On Cytochrome P450 3A4, the IC50 was over 5 µM.

The compound `Cc1csc(Cn2c(C3CCCN(C4CCOCC4)C3)nc3ccccc32)n1` (configuration not stated) returned a Ki in data set [1] of over 3 µM. Also, at Cytochrome P450 3A4, the IC50 was over 5 µM.

For `CCOCCn1c(N2CC[C@H](N(C)C)C2)nc2ccccc21`, the IC50 was 0.021 µM in data set [5], over 10 µM against Cytochrome P450 2D6 and over 5 µM against Cytochrome P450 3A4. The results for the Ki (on Histamine H1 receptor; in data set [3]) were 0.0048 µM and 1.5 µM, respectively. Moreover, in the data set with Liver microsomes, the Stability entry was “Stable”.

`COc1ccc(Cn2c(C3CCCN(C)C3)nc3ccccc32)cc1` (configuration not stated) registered a Ki in data set [1] of over 5 µM. This compound also returned an IC50 against Cytochrome P450 3A4 of over 5 µM.

A word on the IC50: it is the point on the concentration scale where inhibition reaches its midpoint. Read a low IC50 as higher potency. Usually Ki stands for the dissociation constant of the complex between target and ligand, obtained from inhibition or displacement. A low value points to higher affinity. Broadly, the inhibition is the share of the control response that was lost under treatment. Low readings indicate a weak effect, high ones a strong effect. The term solubility denotes the concentration that dissolves in the medium under given conditions. Low values mean little dissolved substance, high ones much dissolved substance.
